One test deals with tomato downy mildew. The test is described as follows: Toxicity test of downy mildew of tomato (pot test on sprayed seedlings, EC50 and co-toxicity coefficient by Sun Yunpei's method). The test is classed as in vivo. As to conditions: for EC50 (PPM): tomato seedlings, sprayed 24 h before inoculation, disease index after seven days; for TTI: toxicity index, tomato downy mildew. As to the method: (§1) The toxicity index of each of the formulations and the co-toxicity coefficient (CTC value) of the mixed formulation were calculated according to Sun Yunpei's method. […] Actual toxicity index (ATI) = (standard formulation EC50/testing formulation EC50)*100 [formula]
(§2) Theoretical toxicity index (TTI) = (toxicity index of formulation A * percentage of A in the mixed formulation) + (toxicity index of formulation B * percentage of B in the mixed formulation) Co−toxicity coefficient (CTC) = [actual toxicity index(ATI) of the mixed formulation/theoretical toxicity index (TTI)of the mixed formulation]*100 [formula]
The samples were selected from the tomato seedlings in the same growing period. Three pots were selected for each treatment and each pot was sprayed with 5 mL with a potter spray tower at the pressure of 50 PSI and each chemical was set 12 concentration gradients. Inoculation was carried out 24 hours after the treatment of the formulations. The conidiums from the leaves with tomato downy mildew (collected from the field) was spread evenly on the tomato seedlings, and the tomato seedlings were then put in the green house for culturing.
Seven days later, the disease index for the whole plant was studied according to the pathological grading standard of tomato downy mildew. The prevention and control efficacy was determined, and the generalized least square method was then applied to calculate the half maximal effective concentration EC50. The Sun Yunpei's method was applied to calculate the co-toxicity coefficient (CTC). Table 4: Toxicity Test Result of Applying the Present Invention to Prevent and Control Tomato Downy Mildew

The next test has as its system cabbage leaf spot. The test can be described thus: Toxicity test of leaf spot of cabbage (pot test on sprayed seedlings, EC50 and co-toxicity coefficient by Sun Yunpei's method). To be noted: for EC50 (PPM): cabbage seedlings, sprayed 24 h before inoculation, disease index after seven days; for TTI: toxicity index, cabbage leaf spot. The test is classed as in vivo. On the procedure: as §1, §2
The samples were selected from the cabbage seedlings in the same growing period. Three pots were selected for each treatment and each pot was sprayed with 5 mL with a potter spray tower at the pressure of 50 PSI and each chemical was set for 12 concentration gradients. Inoculation was carried out 24 hours after the treatment of the formulations. The conidiums from the leaves with cabbage leaf spot (collected from the field) was spread evenly on the cabbage seedlings, and the cabbage seedlings were then put in the green house for culturing.
Seven days later, the disease index for the whole plant was studied according to the pathological grading standard of cabbage leaf spot. The prevention and control efficacy was determined, and the generalized least square method was then applied to calculate the half maximal effective concentration EC50. The Sun Yunpei's method was applied to calculate the co-toxicity coefficient (CTC). Table 3: Toxicity Test Result of Applying the Present Invention to Prevent and Control Leaf Spot of Cabbage

The next test deals with potato cinerea. The test is described as follows: Activity of preventing and controlling grey mould of potato (Colby synergy test, visual observation). Type of test: in vivo. To be noted: Solanum tuberosum, potato seedlings in pots, read-out: Observed activity (%). The source says: A synergistic effect exists when the fungicidal activity of the active compound composition is greater than the sum of the activities of the active compounds applied individually. The expected activity for a given combination of two active compounds can be calculated in accordance with Colby's formula (refer to S.R. Colby, "Calculating Synergistic and Antagonistic Responses of Herbicide Combinations", Weeds 1967, 15, 20-22) as follows: • If X denotes the activity when using active compound A at an application rate of mg/ha or in a concentration of mppm; • Y denotes the activity when using active compound B at an application rate of ng/ha or in a concentration of nppm; • E denotes the activity when using active compounds A and B at application rates of m and ng/ha or in concentration of m and n ppm;
Then: E = X + Y−(X⋅Y)/(100) [formula]
The leaves of the potato seedlings in pots were sprayed with the suspension concentrate in a range of concentrations of the active compounds.
The next day, the treated plants were inoculated with a spore suspension of potato cinerea. The pots were then allowed to stand for 24 hours in a room at 20-22 °C and with high humidity (90-95%). During this period, the spores germinated and the germ tubes penetrated into the leaf tissues. […] Later, the development of cinerea on the leaves was determined by visual observation.

The subject of another test is sclerotia sclerotium. As to conditions: after applying it once in a suitable period; cited from earlier work.
In the next test the test system is wheat downy mildew. The test is described as follows: Toxicity test of wheat downy mildew (pot test on sprayed seedlings, EC50 and co-toxicity coefficient by Sun Yunpei's method). Type of test: in vivo. To be noted: for TTI: toxicity index, wheat downy mildew; for EC50 (PPM): wheat seedlings, sprayed 24 h before inoculation, disease index after seven days. As to the method:
as §1, §2
The samples were selected from wheat seedlings in the same growing period of three to four leaf stage. Three pots were selected for each treatment and each pot was sprayed with 5 mL with a potter spray tower at the pressure of 50 PSI and each chemical was set for 12 concentration gradients. Inoculation was carried out 24 hours after the treatment of the formulations. The conidiums from the leaves with wheat downy mildew (collected from a field) was spread evenly on the wheat seedlings, and then the wheat seedlings were put in the green house for culturing.
Seven days later, the disease index for the whole plant was studied according to the pathological grading standard of wheat downy mildew. The prevention and control efficacy was determined, and the generalized least square method was applied to calculate the half maximal effective concentration EC50. The Sun Yunpei's method was applied to calculate the co-toxicity coefficient (CTC). Table 1: Toxicity Test Result of Applying the Present Invention to Prevent and Control Wheat Downy Mildew

The next test relates to potato gray mold. The test is described as follows: Toxicity test of potato gray mold (pot test on sprayed seedlings, EC50 and co-toxicity coefficient by Sun Yunpei's method). Type of test: in vivo. As to conditions: for EC50 (PPM): potato seedlings, sprayed 24 h before inoculation, disease index after seven days; for TTI: toxicity index, potato gray mold. As to the method: as §1, §2
The samples were selected from potato seedlings in the same growing period of three to four leaf stage. Three pots were selected for each treatment and each pot was sprayed with 5 mL with a potter spray tower at the pressure of 50 PSI and each chemical was set for 12 concentration gradients. Inoculation was carried out 24 hours after the treatment of the formulations. The conidiums from the leaves with potato gray mold (collected from a field) was spread evenly on the potato seedlings, and then the potato seedlings were put in the green house for culturing.
Seven days later, the disease index for the whole plant was studied according to the pathological grading standard of potato gray mold. The prevention and control efficacy was determined, and the generalized least square method was applied to calculate the half maximal effective concentration EC50. The Sun Yunpei's method was applied to calculate the co-toxicity coefficient (CTC). Table 2: Toxicity Test Result of Applying the Present Invention to Prevent and Control Potato Gray Mold

For the molecule `O=C(Nc1ccccc1-c1ccc(Cl)cc1)c1cccnc1Cl` [Boscalid, 2-chloro-N-(4'-chlorobiphenyl-2-yl) nicotinamide], the “EC50 (PPM)” value in the test with tomato downy mildew is given as 22.24 PPM; with cabbage leaf spot, 26.13 PPM; in the test on wheat downy mildew it was 16.23 PPM; in the test with potato gray mold it was 15.23 PPM. For the same molecule, the TTI in the test on tomato downy mildew, with cabbage leaf spot, in the test with wheat downy mildew and in the test with potato gray mold was 100 in each case. For the same molecule, the activity at 8 ppm with potato cinerea (Concentration 8 ppm) turned out to be 28%. Also, in the test with sclerotia sclerotium, the “control effect and disease index” value is listed as “more than 80%”.

Consider `N#Cc1c(Cl)c(Cl)c(Cl)c(C#N)c1Cl` [Chlorothalonil, 2,4,5,6-tetrachloro-1,3-benzenedicarbonitrile], for which the “EC50 (PPM)” value in the test on tomato downy mildew was 32.27 PPM; in the test on cabbage leaf spot, 38.03 PPM; in the test on wheat downy mildew, 18.76 PPM; in the test with potato gray mold, 38.03 PPM. In addition, the TTI with tomato downy mildew came out at 68.91; in the test on cabbage leaf spot, 68.71; in the test with wheat downy mildew, 86.5; in the test on potato gray mold it was 68.71. In addition, the activity at 40 ppm with potato cinerea (Concentration 40 ppm) turned out to be 0%.
